# Reference: ChEMBL document CHEMBL1122549, “Opioid agonists and antagonists. 6,6-Hydrazi and 6-oximino derivatives of 14-hydroxydihydromorphinones” (1984)
# Experiments:
# Format in all cases: functional
# Mus musculus [1] = assay: Compound was evaluated in vivo for the agonist activity after subcutaneous administration as aqueous solutions of HCl salt in mice using Hot plate assay; settings: sc
# Mus musculus [2] = assay: Compound was evaluated in vivo for the agonist activity after subcutaneous administration as aqueous solutions of HCl salt in mice using Nilsen assay.; settings: sc
# Mus musculus [3] = assay: Compound was evaluated in vivo for the agonist activity after subcutaneous administration as aqueous solutions of HCl salt in mice using Phenylquinone (PPQ) writhing assay; settings: sc
# Mus musculus [4] = assay: Compound was evaluated in vivo for the agonist activity after subcutaneous administration as aqueous solutions of HCl salt in mice using Tail flick assay; settings: sc
# Mus musculus [5] = assay: Compound was evaluated in vivo for the antagonist activity by the tail flick assay using morphine as the agonist in mice
# Mus musculus [6] = assay: Compound was evaluated in vivo for the agonist activity after subcutaneous administration as aqueous solutions of HCl salt in mice using Nilsen assay; settings: sc
# Mus musculus [7] = assay: Compound was evaluated in vivo for the antagonist activity by the tail flick assay using morphine as the agonist in mice.
compound,measurement,setting,value
CN1CCC23c4c5ccc(O)c4OC2/C(=N/O)CCC3(O)C1C5 (centres undefined),ED50,Mus musculus [1],0.56 mg/kg
same,ED50,Mus musculus [2],0.45 mg/kg
same,ED50,Mus musculus [3],0.1 mg/kg
same,ED50,Mus musculus [4],2.2 mg/kg
CN1CC[C@]23c4c5ccc(O)c4O[C@H]2[C@@H](O)CC[C@H]3[C@H]1C5.Cl,ED50,Mus musculus [1],0.19 mg/kg
same,ED50,Mus musculus [2],0.2 mg/kg
C=CCN1CCC23c4c5ccc(O)c4OC2/C(=N/O)CCC3(O)C1C5 (centres undefined),ED50,Mus musculus [5],0.06 mg/kg
CN1CCC23c4c5ccc(O)c4OC2C2(CCC3(O)C1C5)NN2 (centres undefined),ED50,Mus musculus [1],0.81 mg/kg
same,ED50,Mus musculus [6],2 mg/kg
same,ED50,Mus musculus [3],0.05 mg/kg
same,ED50,Mus musculus [4],0.7 mg/kg
CO/N=C1\CCC2(O)C3Cc4ccc(O)c5c4C2(CCN3C)C1O5 (centres undefined),ED50,Mus musculus [1],0.22 mg/kg
same,ED50,Mus musculus [3],0.02 mg/kg
same,ED50,Mus musculus [4],0.08 mg/kg
Cl.O=C1CC[C@@]2(O)[C@H]3Cc4ccc(O)c5c4[C@@]2(CCN3CC2CC2)[C@H]1O5 [NALTREXONE HYDROCHLORIDE],ED50,Mus musculus [7],0.007 mg/kg
O/N=C1\CCC2(O)C3Cc4ccc(O)c5c4C2(CCN3CC2CC2)C1O5 (centres undefined),ED50,Mus musculus [7],0.08 mg/kg
Oc1ccc2c3c1OC1C4(CCC5(O)C(C2)N(CC2CC2)CCC315)NN4 (centres undefined),ED50,Mus musculus [7],0.02 mg/kg
C=CCN1CCC23c4c5ccc(O)c4OC2/C(=N/OC)CCC3(O)C1C5 (centres undefined),ED50,Mus musculus [5],1.9 mg/kg
CO/N=C1\CCC2(O)C3Cc4ccc(O)c5c4C2(CCN3CC2CC2)C1O5 (centres undefined),ED50,Mus musculus [5],0.08 mg/kg
